Values quoted from earlier work in paper PMC6816764 (Journal of the American Chemical Society, 2018).

Legend:
[1] = cited from earlier work
[2] = in nitrogen-sparged H2O; cited from earlier work

| Molecule | 1O2 production efficiency ([1]; ref 58a) | Φem of reference [2] | ΦΔ of standard ([1]; in CH3OH) |
| --- | --- | --- | --- |
| [Ru(tpy)(dppn)(py)]^2+ | 98% |  |  |
| [Ru+2].c1ccc(-c2ccccn2)nc1.c1ccc(-c2ccccn2)nc1.c1ccc(-c2ccccn2)nc1 [[Ru(bpy)3]^2+] |  | 0.042 | 0.81 |
